Experiments:
[1] = In vivo half-life after single i.v. administration, mice; settings: female, Swiss CD1, mouse, plasma, iv, 10 mg/kg
Experimental: (§1) Yet other exemplary in vivo models can be used to characterize the pharmacokinetics and pharmacodynamic parameters of antimicrobial compounds of this disclosure. Some parameters that can be measured include an in vivo half-life of a compound, elimination rate and clearance, volume of distribution, and bioavailability. For example, briefly, compounds can be administered as a single i.v. or oral (p.o.) dose in mice or rats. At various time points (ranging from 1 minute to 72 hours), blood from treated animals is collected and the concentration of lipopeptide derivative in the ex vivo plasma can be quantified by, for example, liquid chromatography with mass spectrometric detection (LC/MS). After quantification, pharmacokinetics parameters can be calculated using methods known in the art, such as a one compartment model with mono-exponential decay and linear regression analysis (see, e.g., Fantin et al., Antimicrob. Agents Chemotherap. 35: 1413. 1991).
(§2) A pharmacokinetic parameter that can be measured, and which aids in determining efficacy, after a single i.v. administration of an antimicrobial lipopeptide derivative of the instant disclosure is the systemic half-life of the compound. Briefly, test compounds were dissolved in a 5% mannitol solution (pH was then adjusted) to a concentration of 1 mg/mL (w/v). A single intravenous injection in the lateral caudal vein of Swiss CD1 mice (5 to 6 weeks old, female) or Sprague Dawley rats (male) was used to administer the lipopeptide derivative at a final dose of 10 mg/kg. At various time points (ranging from about 4 minutes to about 24 hours for mice, and 48 or 72 hours for rats) mice were sacrificed and blood was harvested. The concentration of lipopeptide derivative in ex vivo plasma was quantified using liquid chromatography (LC) with mass spectrometric detection (MS).

[2] = system: S. pneumoniae (SPN 0032, ATCC 10813); assay: Intraperitoneal murine model of protection against infection (ED50, Table 21); assay type: in vivo, Streptococcus pneumoniae; settings: Swiss CD1 mice infected i.p., compound i.v.
Source text: (§3) A variety of in vivo models may be used to assess the antimicrobial properties of lipopeptide derivative compounds of this disclosure. For example, antimicrobial compounds of the instant disclosure may be tested for efficacy by measuring a compound's ability to protect a mouse against a microbial infection, such as an infection or disease caused by or related to Gram-positive bacteria, including Staphylococcus aureus, Streptococcus pneumoniae, and Enterococcus faecalis. […] A certain period after infection, mice are then individually treated, for example intravenously (i.v.), with a lipopeptide derivative of this disclosure.
(§4) Antimicrobial lipopeptide derivatives of the instant invention were tested for antimicrobial activity against Gram-positive bacteria in an intraperitoneal (i.p.) murine model (i.e., bacteria were injected i.p. and lipopeptide compounds were administered intravenously (i.v.)). Mice were infected with Staphylococcus aureus, Streptococcus pneumoniae, or Enterococcus faecalis, which were prepared as follows: S. aureus Smith (SAU0017, ATCC 19636) were grown in culture overnight on trypticase soy broth, harvested and then resuspended in fresh media containing 5% mucin (Sigma Chemical Co.); S. pneumoniae (SPN 0032, ATCC 10813) were grown overnight on blood agar plates and re-suspended in 0.9% sterile saline; and E. faecalis EFS0040 (clinical isolate) were grown overnight in culture on blood heart infusion broth, washed and resuspended in 0.9% saline and mixed with equal volume of sterile fecal rat extract. Swiss CD1 mice were each infected i.p. with bacteria at the following doses: S. aureus at 10^6 CFU/mouse; S. pneumoniae at 10^2 CFU/mouse; or E. faecalis at 10^7.5 CFU/mouse. […] The ED50 for each compound was calculated using the method of Reed and Meunch (Am. J. Hyg. 27: 493, 1938).

[3] = system: S. aureus Smith (SAU0017, ATCC 19636); assay: as above; assay type: in vivo, Staphylococcus aureus; settings: Swiss CD1 mice infected i.p., compound i.v.
Source text: as §3, §4

[4] = Acute toxicity, maximum tolerated dose (MTD); settings: Swiss CD1, mouse, in vivo, iv
Experimental: Another measure of toxicity is the maximum tolerated dose (MTD), which is determined as a dose level that is not accompanied by mortality or life-threatening toxicity. The dose ratio between toxic and therapeutic effect is the therapeutic index. […] The data obtained from these cell culture assays and animal studies can be used in formulating a dosage range that is not toxic for use in human subjects. […] The dosage may vary within this range depending upon the dosage form employed and the route of administration utilized. The exact formulation, route of administration and dosage can be chosen by the individual physician in view of the patient's condition or need thereof (see, e.g., Fingl et al., 1975, In: The Pharmacological Basis of Therapeutics, Chapter 1).
For example, to examine acute toxicity, lipopeptide antibiotics of the invention can be tested in an animal model, such as Swiss CD1 mice, to determine the MTD. In certain embodiments, the animals used to test toxicity of a particular compound can be approximately 5-6 weeks old at the start of the experiment and weigh 22-26 g. The lipopeptides may be administered intravenously (i.v.) into, for example, the caudal tail vein at dose levels that range from about 50 to about 500 mg/kg, or from about 75 to about 250 mg/kg, or from about 100 to about 200 mg/kg, or at a dose range at or below 100 mg/kg. The animals are generally observed immediately after administration, 1-2 hours post administration, 5-8 hours post administration, and once daily thereafter. Observations include both the activity level of the mouse as well as any physical side effects from the administered dose. The animal weight is recorded on day 0 (immediately before dosing) and on day 7.

[5] = system: E. faecalis EFS0040 (clinical isolate); assay: Intraperitoneal murine model of protection against infection (ED50, Table 21); assay type: in vivo, Enterococcus faecalis; settings: Swiss CD1 mice infected i.p., compound i.v.
Source text: as §3, §4

[6] = system: Staphylococcus aureus (MSSA); settings: 24 h
Method in brief: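 Broth microdilution MIC per NCCLS M7-A6 with doubling serial dilutions, in cation-adjusted Mueller-Hinton broth supplemented with 0.625 mM calcium.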

Staphylococcus aureus = assay type: cell-based; settings: for Post Antibiotic Effect (hours) 0.5 × MIC: exposure one hour at 0.5 × MIC, S. aureus log phase; for Post Antibiotic Effect (hours) 1 × MIC: exposure one hour at 1 × MIC; for Post Antibiotic Effect (hours) 2 × MIC: exposure one hour at 2 × MIC; for Post Antibiotic Effect (hours) 4 × MIC: exposure one hour at 4 × MIC
Experimental: An exemplary pharmacokinetic parameter to aid in characterizing the properties of lipopeptide derivative compounds of the disclosure is post-antibiotic effect (PAE) of a lipopeptide derivative. For example, a bacterial culture with an initial count of 10^6 to 10^7 colony forming units per ml (CFU/ml) is treated with a certain concentration of lipopetide derivative for a certain time and a parallel (control) culture is left untreated. After treatment, the lipopetide derivative is removed from the culture (e.g., by dilution 1:1000 in fresh, lipopetide derivative-free medium), and the untreated culture is manipulated in the same way. Then the cultures are further incubated and monitored for bacterial growth over time. […] By way of background and not wishing to be bound by theory, a lipopeptide derivative having a measurable PAE activity will likely provide additional time for the host immune system to remove bacteria that might have survived antibiotic treatment and reproduced after the antibiotic is degraded, removed or filtered from the circulatory system. A longer PAE can influence the clinical outcome of antimicrobial therapy (i.e., a lower dose of a lipopetide derivative may be used to treat an infection or the frequency of a dosing regimen can be reduced).
After removal of the lipopeptide compounds, bacterial titre was determined each hour to monitor bacterial re-growth. The PAE duration is defined as the difference in time required for antimicrobial exposed bacterial cells versus unexposed bacterial cells to achieve an increase of 1 log10 unit in CFU/mL.

in vivo = settings: male, Sprague Dawley, rat, plasma, iv, 10 mg/kg
Experimental: as §1, §2

[7] = system: Streptococcus pneumoniae (SPN032, ATCC 1081); assay: Intranasal murine lung infection model; assay type: in vivo; settings: Swiss CD1 mice, i.n. S. pneumoniae, i.v. treatment at 3, 24 and 48 hours post-infection, deaths over ten days
Experimental: Other exemplary in vivo models of infection that may be used to assess, for example, the efficacy of an antimicrobial lipopeptide of the instant disclosure include the following: (A) a mouse (murine) model of lung infection (pneumonia) wherein the bacterial infection is administered intranasally (i.n.); (B) a murine thigh muscle model wherein the bacterial infection is administered intramuscularly (i.m.) in normal or neutropenic (immunocompromised) mice; and (C) a combination murine thigh muscle model (i.m. infection)/lung (i.n.) infection.
Antimicrobial lipopeptide derivatives of the instant invention were tested for antimicrobial activity against Gram-positive bacteria in an intranasal (i.n.) murine lung infection model (i.e., bacteria were innoculated i.n. and lipopeptide compounds were administered i.v.). Streptococcus pneumoniae (SPN032, ATCC 1081) were grown on 5% sheep blood agar plates for 24 h at 37° C., harvested and then resuspended in 0.9% saline. A group of eight Swiss CD1 mice were sedated with 2% isoflurane, and each was infected i.n. dropwise to the nares with 50 μl of the prepared bacterial inoculum (i.e., a dose of about 10^6 CFU/mouse). […] The ED50 (mg/kg) for each compound was calculated using the method of Reed and Meunch (Am. J. Hyg. 27: 493, 1938).

[8] = system: Streptococcus pneumoniae (SPN0002); assay: Lung infection model in neutropenic mice; assay type: in vivo
Experimental: Antimicrobial lipopeptide derivatives of the instant invention were tested for antimicrobial activity against Gram-positive bacteria in an intranasal (i.n.), immunocomprimised murine lung infection model (i.e., bacteria were innoculated i.n. and lipopeptide compounds were administered i.v.). Streptococcus pneumoniae (SPN0002) were grown on 5% sheep blood agar plates for 24 h at 37° C., harvested and then resuspended in 0.9% saline. A group of three to four Swiss CD1 mice were rendered neutropenic by administration of cyclophosphamide (Sigma Chemical Co.; 150 mg/kg, i.p.) on day −4 and −1 before infection. At time −18 to −24 hours, each mouse was infected i.n. dropwise via the nares with 50 μl of the prepared bacterial inoculum (i.e., a dose of about 5×10^6 CFU/mouse). At 18 to 24 hours post-infection, the groups of mice received i.v. (1) a lipopeptide derivative formulated in a 5% D-mannitol solution at a dose of about 1 mg/kg, 3 mg/kg, 10 mg/kg, or 30 mg/kg; (2) the 5% mannitol vehicle alone at a dose volume of 10 mL/kg; or (3) a known antibiotic, such as ampicillin, at a similar dose as the lipopeptide compounds. At 18 to 24 hours post-antibiotic treatment, mice were sacrificed and lungs harvested. Lungs were sampled by spreading homogenates on blood agar plates and incubating for 24 h at 37° C., and then counting the number of CFU. The EKill (killing effect; i.e., log10 CFU/lung reduction as compared to CFU count at intial treatment time) and the EMax (maximum reduction effect; i.e., log10 CFU/lung reduction as compared to CFU count of control at 24 hours) for each compound was calculated.

Structure (SMILES)	half-life [1] [h]	ED50 in Mice, S. pneumoniae (SPN0032) [2] [mg/kg]	ED50 in Mice, S. aureus (SAU0017) [3] [mg/kg]	MTD at 7 days [4] [mg/kg]	ED50 in Mice, E. faecalis (EFS0040) [5] [mg/kg]	MIC [6] [µg/mL]	MIC used for the PAE experiment (Staphylococcus aureus) [µg/mL]	Post Antibiotic Effect (hours) 0.5 × MIC (Staphylococcus aureus) [h]	Post Antibiotic Effect (hours) 1 × MIC (Staphylococcus aureus) [h]	Post Antibiotic Effect (hours) 2 × MIC (Staphylococcus aureus) [h]	Post Antibiotic Effect (hours) 4 × MIC (Staphylococcus aureus) [h]	half-life (in vivo) [h]	ED50 [7] [mg/kg]	EKill (log10 CFU/lung reduction versus count at initial treatment time) ([8]; 30 mg/kg i.v.) [log10 CFU/lung]	log10 CFU/lung reduction (EMax, versus control at 24 hours) ([8]; highest dose level 30 mg/kg i.v.) [log10 CFU/lung]	ED50 ([5]; Enterococcus faecalis, read-out: ED50 in Mice, E. faecalis (EFS0040)) [mg/kg]
CCCCCCCCCCCCCCC(=O)NC(CC(=O)O)C(=O)NC1C(=O)N2CCCCC2C(=O)NC(C(C)C(=O)O)C(=O)NC(CC(=O)O)C(=O)NCC(=O)NC(CC(=O)O)C(=O)NCC(=O)NC(C(C)NC(=O)CN)C(=O)NC(C(C)C)C(=O)N2CCCC2C(=O)NC1C (stereo not shown) [Compound 3, C15-Amphomycin-9-Gly]	6.65	1.3	4.9	50 to 200												
CCCCCCCCCCCCCCNC(=O)NC(CC(=O)O)C(=O)NC1C(=O)N2CCCCC2C(=O)NC(C(C)C(=O)O)C(=O)NC(CC(=O)O)C(=O)NCC(=O)NC(CC(=O)O)C(=O)NCC(=O)NC(C(C)NC(=O)CCN)C(=O)NC(C(C)C)C(=O)N2CCCC2C(=O)NC1C (stereo not drawn) [Compound 278, CH3—(CH2)13—NH—C(═O)-Amphomycin-9-(β-Ala)]	7.45		7.1	200 to 400	5.3	0.5	2	1.5	2.6	2.2	3.2	7.08				
CCCCCCCCCCCC(=O)Nc1ccc(C(=O)NC(CC(=O)O)C(=O)NC2C(=O)N3CCCCC3C(=O)NC(C(C)C(=O)O)C(=O)NC(CC(=O)O)C(=O)NCC(=O)NC(CC(=O)O)C(=O)NCC(=O)NC(C(C)NC(=O)CCN)C(=O)NC(C(C)C)C(=O)N3CCCC3C(=O)NC2C)cc1 (stereo not drawn) [Compound 280, C12-PABA-Amphomycin-9-(β-Ala)]	5.75		6.5	200 to 400	2.1			2.5	1.5	1.9	2.4	7.07	1.8			
CC1(C)S[C@@H]2[C@H](NC(=O)[C@H](N)c3ccccc3)C(=O)N2[C@H]1C(=O)O [ampicillin, reference compound]														1.8	2.58	4.2
